Source: PubChem BioAssay AID1963978 (Molecular Pharmacology Branch, DTP, NCI, 2024)
Where “and” joins values, the source holds several entries; their conditions need not be identical. Equal entries are not always repeated.

System: 616215-338-R-J1-PDC spheroids with HUVEC/MSC, viability
Experiment: Anticancer human tumor 616215-338-R-J1-PDC patient-derived colon adenocarcinoma cell line growth inhibition [PI3K]
Details: for viability, T/C: stronger effect = lower value
Method in brief: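 Multi-cell spheroids combine tumor cells with HUVEC and human MSCs, treated with targeted agents alone or with inavolisib, alpelisib, duvelisib or copanlisib. Concentrations fall in half-log steps from at or near clinical Cmax, or from 10 microM where Cmax is unknown; viability read-out.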

[1] = curve of first compound, second compound 0.0316 µM
[2] = curve of first compound, second compound 0.1 µM
[3] = curve of first compound, second compound 0.316 µM
[4] = curve of first compound, second compound 1 µM
[5] = second compound 0.0316 µM, first compound 0.0316 µM
[6] = second compound 0.0316 µM, first compound 0.1 µM
[7] = second compound 0.0316 µM, first compound 0.316 µM
[8] = second compound 0.0316 µM, first compound 1 µM
[9] = second compound 0.0316 µM, first compound 3.16 µM
[10] = second compound 0.0316 µM, first compound 10 µM
[11] = second compound 0.1 µM, first compound 0.0316 µM
[12] = second compound 0.1 µM, first compound 0.1 µM
[13] = second compound 0.1 µM, first compound 0.316 µM
[14] = second compound 0.1 µM, first compound 1 µM
[15] = second compound 0.1 µM, first compound 3.16 µM
[16] = second compound 0.1 µM, first compound 10 µM
[17] = second compound 0.316 µM, first compound 0.0316 µM
[18] = second compound 0.316 µM, first compound 0.1 µM
[19] = second compound 0.316 µM, first compound 0.316 µM
[20] = second compound 0.316 µM, first compound 1 µM
[21] = second compound 0.316 µM, first compound 3.16 µM
[22] = second compound 0.316 µM, first compound 10 µM
[23] = second compound 1 µM, first compound 0.0316 µM
[24] = second compound 1 µM, first compound 0.1 µM
[25] = second compound 1 µM, first compound 0.316 µM
[26] = second compound 1 µM, first compound 1 µM
[27] = second compound 1 µM, first compound 3.16 µM
[28] = second compound 1 µM, first compound 10 µM
[29] = curve of first compound, second compound 3.16 µM
[30] = curve of first compound, second compound 10 µM
[31] = second compound 3.16 µM, first compound 0.0316 µM
[32] = second compound 3.16 µM, first compound 0.1 µM
[33] = second compound 3.16 µM, first compound 0.316 µM
[34] = second compound 3.16 µM, first compound 1 µM
[35] = second compound 3.16 µM, first compound 3.16 µM
[36] = second compound 3.16 µM, first compound 10 µM
[37] = second compound 10 µM, first compound 0.0316 µM
[38] = second compound 10 µM, first compound 0.1 µM
[39] = second compound 10 µM, first compound 0.316 µM
[40] = second compound 10 µM, first compound 1 µM
[41] = second compound 10 µM, first compound 3.16 µM
[42] = second compound 10 µM, first compound 10 µM
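Further: spheroids exposed to agents for seven days before the viability read.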

## CC1(C)CCC(Nc2ncc(C(F)(F)F)c(-c3c[nH]c4c(P(C)(C)=O)c(C#N)ccc34)n2)CN1 (stereo unspecified) + COc1c(OCCCN2CCOCC2)ccc2c3n(c(=NC(=O)c4cnc(N)nc4)nc12)CCN3
Curve of first compound, second compound 0.00316 µM
  IC50: < 0.0316 µM
Curve of first compound, second compound 0.01 µM
  IC50: < 0.0316 µM
[1]
  IC50: < 0.0316 µM
[2]
  IC50: 0.188 µM
[3]
  IC50: < 0.0316 µM
[4]
  IC50: < 0.0316 µM
Second compound 0.00316 µM, first compound 0.0316 µM
  viability, T/C: 47.5%
Second compound 0.00316 µM, first compound 0.1 µM
  viability, T/C: 43.1%
Second compound 0.00316 µM, first compound 0.316 µM
  viability, T/C: 31.6%
Second compound 0.00316 µM, first compound 1 µM
  viability, T/C: 56.8%
Second compound 0.00316 µM, first compound 3.16 µM
  viability, T/C: 48.9%
Second compound 0.00316 µM, first compound 10 µM
  viability, T/C: 0.29%
Second compound 0.01 µM, first compound 0.0316 µM
  viability, T/C: 40.2%
Second compound 0.01 µM, first compound 0.1 µM
  viability, T/C: 29%
Second compound 0.01 µM, first compound 0.316 µM
  viability, T/C: 38.7%
Second compound 0.01 µM, first compound 1 µM
  viability, T/C: 72.4%
Second compound 0.01 µM, first compound 3.16 µM
  viability, T/C: 44.5%
Second compound 0.01 µM, first compound 10 µM
  viability, T/C: 0.67%
[5]
  viability, T/C: 34.5%
[6]
  viability, T/C: 33.7%
[7]
  viability, T/C: 41.5%
[8]
  viability, T/C: 44.8%
[9]
  viability, T/C: 37.4%
[10]
  viability, T/C: 0.14%
[11]
  viability, T/C: 63.7%
[12]
  viability, T/C: 43.8%
[13]
  viability, T/C: 47.6%
[14]
  viability, T/C: 41.6%
[15]
  viability, T/C: 21.4%
[16]
  viability, T/C: 0.09%
[17]
  viability, T/C: 29.9%
[18]
  viability, T/C: 23.8%
[19]
  viability, T/C: 20.1%
[20]
  viability, T/C: 18.9%
[21]
  viability, T/C: 8.61%
[22]
  viability, T/C: 0.69%
[23]
  viability, T/C: 20%
[24]
  viability, T/C: 19.6%
[25]
  viability, T/C: 14.9%
[26]
  viability, T/C: 16.1%
[27]
  viability, T/C: 8.67%
[28]
  viability, T/C: 0.24%

## CCCS(=O)(=O)Nc1ccc(F)c(C(=O)c2c[nH]c3ncc(-c4ccc(Cl)cc4)cc23)c1F + CC(Nc1ncnc2nc[nH]c12)c1cc2cccc(Cl)c2c(=O)n1-c1ccccc1
[1]
  IC50: 4.58 µM
[2]
  IC50: 4.06 µM
[3]
  IC50: 4.39 µM
[4]
  IC50: 4.67 µM
[29]
  IC50: 4.29 µM
[30]
  IC50: 4.69 µM
[5]
  viability, T/C: 102%
[6]
  viability, T/C: 93.2%
[7]
  viability, T/C: 106%
[8]
  viability, T/C: 93.6%
[9]
  viability, T/C: 73.2%
[10]
  viability, T/C: 1.56%
[11]
  viability, T/C: 110%
[12]
  viability, T/C: 102%
[13]
  viability, T/C: 106%
[14]
  viability, T/C: 96.4%
[15]
  viability, T/C: 63.4%
[16]
  viability, T/C: 1.25%
[17]
  viability, T/C: 105%
[18]
  viability, T/C: 113%
[19]
  viability, T/C: 97.7%
[20]
  viability, T/C: 101%
[21]
  viability, T/C: 68.9%
[22]
  viability, T/C: 1.67%
[23]
  viability, T/C: 107%
[24]
  viability, T/C: 105%
[25]
  viability, T/C: 93.8%
[26]
  viability, T/C: 101%
[27]
  viability, T/C: 74.3%
[28]
  viability, T/C: 2.71%
[31]
  viability, T/C: 100%
[32]
  viability, T/C: 115%
[33]
  viability, T/C: 102%
[34]
  viability, T/C: 107%
[35]
  viability, T/C: 67.4%
[36]
  viability, T/C: 1.53%
[37]
  viability, T/C: 115%
[38]
  viability, T/C: 105%
[39]
  viability, T/C: 113%
[40]
  viability, T/C: 104%
[41]
  viability, T/C: 74.7%
[42]
  viability, T/C: 3%

## CCN1CCN(Cc2ccc(Nc3ncc(F)c(-c4cc(F)c5nc(C)n(C(C)C)c5c4)n3)nc2)CC1
Compound 0.00316 µM
  viability, T/C: 98.2% [middle of 4 runs]
Compound 0.01 µM
  viability, T/C: 92.2% [middle of 4 runs]
Compound 0.0316 µM
  viability, T/C: 97.4% [middle of 4 runs]
Compound 0.1 µM
  viability, T/C: 114% and 104% (2×) and 116%
Curve of compound
  IC50: > 1 µM

## C[C@@H](NC(=O)c1ncnc(N)c1Cl)c1ncc(C(=O)Nc2cc(C(F)(F)F)c(Cl)cn2)s1 + CC(Nc1ncnc2nc[nH]c12)c1cc2cccc(Cl)c2c(=O)n1-c1ccccc1
[1]
  IC50: > 10 µM
[2]
  IC50: > 10 µM
[3]
  IC50: > 10 µM
[4]
  IC50: > 10 µM
[29]
  IC50: > 10 µM
[30]
  IC50: 9.7 µM
[5]
  viability, T/C: 100%
[6]
  viability, T/C: 115%
[7]
  viability, T/C: 105%
[8]
  viability, T/C: 105%
[9]
  viability, T/C: 114%
[10]
  viability, T/C: 88.5%
[11]
  viability, T/C: 99.7%
[12]
  viability, T/C: 101%
[13]
  viability, T/C: 97%
[14]
  viability, T/C: 118%
[15]
  viability, T/C: 105%
[16]
  viability, T/C: 90.5%
[17]
  viability, T/C: 112%
[18]
  viability, T/C: 105%
[19]
  viability, T/C: 101%
[20]
  viability, T/C: 110%
[21]
  viability, T/C: 99%
[22]
  viability, T/C: 74.6%
[23]
  viability, T/C: 104%
[24]
  viability, T/C: 106%
[25]
  viability, T/C: 104%
[26]
  viability, T/C: 96.6%
[27]
  viability, T/C: 113%
[28]
  viability, T/C: 64.8%
[31]
  viability, T/C: 95.9%
[32]
  viability, T/C: 103%
[33]
  viability, T/C: 104%
[34]
  viability, T/C: 98.4%
[35]
  viability, T/C: 99.4%
[36]
  viability, T/C: 67.2%
[37]
  viability, T/C: 95.4%
[38]
  viability, T/C: 113%
[39]
  viability, T/C: 98.8%
[40]
  viability, T/C: 98.5%
[41]
  viability, T/C: 88.5%
[42]
  viability, T/C: 48.4%
